The values that follow are results of earlier work, collected in paper PMC6253886, “Prodrugs of Thyrotropin-Releasing Hormone and Related Peptides as Central Nervous System Agents” (Molecules, 2009).

Like-named read-outs stand apart in the source and are kept apart here. Marks after values point to notes of the source that are not given here. [ ]: non-standard residue; d: D form. The star is where a group is joined. O(cholesteryl) = CC(C)CCC[C@@H](C)[C@H]1CC[C@H]2[C@@H]3CC=C4C[C@@H](O*)CC[C@]4(C)[C@H]3CC[C@]12C; pGlu = O=C1CC[C@@H](C(=O)O)N1; Dht = not defined here

As a reminder, the Ki is the equilibrium dissociation constant of an inhibitor or competing ligand from its target. In general, half-life refers to how long it takes for the measured level to halve.

The conditions of data set [1]: IAMC. An excerpt:
We utilized again the robust ... || (+ 2 further places)

In data set [2] the test system is mice. As to conditions: for Analeptic Effect: % Decrease in Sleeping Time / Sleeping time (min): 10 µmol/kg i.v.; for Analeptic Effect: % Decrease in Sleeping Time: percent decrease vs saline vehicle counted as 100%; for % Decrease in Sleeping Time / Sleeping time (min): pentobarbital 60 mg/kg i.p. 10 min later; for % Decrease in Sleeping Time: percent of vehicle sleeping time (54.9 ±3.8 min); for Sleeping time (min): saline vehicle 80±2 min. As to the method:
Table 1 Barbiturate-induced sleeping times in mice after the administration of [Leu^2]TRH and its produgs having various spacers (S). Sleeping time decrease is expressed as percent of sleeping time for vehicle administration only (54.9 ±3.8 min). […] Values are expressed as percent decrease compared to those of saline vehicle that was counted as 100%. *Statistically significant difference from saline control (ANOVA followed by Dunnett’s, P < 0.05, n=6–16). Repri | column: Analeptic Effect:% Decrease in Sleeping Time || (+ 5 further places)

Data set [3] deals with mice. As to conditions: 3 µmol/kg i.v., percent decrease vs saline vehicle counted as 100%, n=6–16. An excerpt: Table 4 Comparison of analeptic (equimolar dose of 10 µmol/kg body weight, i.v.) and antidepressant (equimolar dose of 3 of µmol/kg body weight, i.v) effects of test compounds in mice. Values are expressed as percent decrease compared to those of saline vehicle that was counted as 100%. *Statistically significant difference from saline control (ANOVA followed by Dunnett’s, P < 0.05, n=6–16). Repri | column: Porsolt Swim Test:% Decrease in Immobility

For data set [4], the target named is TRH receptor (Rattus norvegicus) (UniProt Q01717). The experiment in a line: radioligand competition. For orientation: In a radioligand displacement assay an active substance lowers the binding of a labelled ligand.
Sequence of TRH receptor (Rattus norvegicus) (Q01717 whole entry): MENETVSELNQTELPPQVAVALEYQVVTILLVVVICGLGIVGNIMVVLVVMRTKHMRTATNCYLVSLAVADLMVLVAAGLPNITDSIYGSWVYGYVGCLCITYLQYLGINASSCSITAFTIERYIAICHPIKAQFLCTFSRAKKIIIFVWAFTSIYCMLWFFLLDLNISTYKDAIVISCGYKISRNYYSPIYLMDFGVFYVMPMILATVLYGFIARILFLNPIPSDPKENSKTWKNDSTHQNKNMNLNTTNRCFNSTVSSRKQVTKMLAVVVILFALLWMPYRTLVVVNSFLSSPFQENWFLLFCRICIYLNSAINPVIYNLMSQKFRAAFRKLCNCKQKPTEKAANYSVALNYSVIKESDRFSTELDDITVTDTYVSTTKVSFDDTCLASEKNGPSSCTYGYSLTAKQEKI
Data set [5] deals with triiodothyronine (T3) levels. The following applies: review statement. From the text:
(§1) Many pharmacological activities of this peptide are similar to those of TRH [54]; however, the beneficial effects after treatment with [Glu^2]TRH are reportedly more robust or prolonged. These advantages are probably due to the increased resistance of this peptide to enzymes principally responsible for the rapid degradation of TRH in vivo [40].

The subject of data set [6] is TRH receptors. As to conditions: review statement.
Source text: as §1

The procedure of data set [7]: Studies in rodents and humans have shown that this tripeptide has a very short (6–10 min) half-life in plasma. The rapid degradation in this medium is mainly due to the action of pyroglutamyl aminopeptidases. Additionally, this highly hydrophilic molecule (logP = –2.46) also lacks its own active BBB transport system; thus, high doses of the peptide unavoidably manifesting a profound and undesired hormonal (endocrine) effect would be required for CNS application. Therefore, dissociation of endocrine and CNS actions of TRH is a crucial issue in designing TRH analogues a ... || A centrally selective natural analogue of TRH is [Leu^2]TRH (pGlu-Leu-Pro-NH2, Figure 1), in which the central His of TRH is replaced with Leu. […] Therefore, we selected this tripeptide for substantiating our brain-targeting prodrug approach. […] The amino- and carbox ...
This is another data set of the same source.

The text on data set [8]: A centrally selective natural analogue of TRH is [Leu^2]TRH (pGlu-Leu-Pro-NH2, Figure 1), in which the central His of TRH is replaced with Leu. […] Therefore, we selected this tripeptide for substantiating our brain-targeting prodrug approach. […] The amino- and carbox ...
The source holds these as a separate data set.

For data set [9] the following is noted: rodents and humans. As to the method: Studies in rodents and humans have shown that this tripeptide has a very short (6–10 min) half-life in plasma. The rapid degradation in this medium is mainly due to the action of pyroglutamyl aminopeptidases. Additionally, this highly hydrophilic molecule (logP = –2.46) also lacks its own active BBB transport system; thus, high doses of the peptide unavoidably manifesting a profound and undesired hormonal (endocrine) effect would be required for CNS application. Therefore, dissociation of endocrine and CNS actions of TRH is a crucial issue in designing TRH analogues a ...

Data set [10] concerns receptor labeled by [3H][3-Me-His2]TRH. The following applies: [3H][3-Me-His2]TRH-labeled receptor, rat brain pellets. An excerpt: (§2) Replacement of [His^2] practically aboli ...
The conditions of data set [11]: mouse plasma.
Source text: as §2

Where [12] appears, read: k’IAM = (tR-t0)/t0, t0 = retention time of [Glu^2]TRH as dead-volume marker.

Sequence of TRH (P01150 whole entry, looked up): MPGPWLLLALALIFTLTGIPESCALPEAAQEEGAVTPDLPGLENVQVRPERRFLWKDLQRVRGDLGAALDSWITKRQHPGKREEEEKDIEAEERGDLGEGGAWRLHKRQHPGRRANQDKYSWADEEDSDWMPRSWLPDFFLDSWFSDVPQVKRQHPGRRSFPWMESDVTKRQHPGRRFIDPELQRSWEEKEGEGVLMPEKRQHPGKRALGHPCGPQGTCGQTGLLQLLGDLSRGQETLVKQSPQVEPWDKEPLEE

Consider “Dht-Glu(OH)-Pro-NH2 [neutral prodrug without the ester function on the side-chain of the central residue]”, for which the “improvement of affinity to membrane lipids compared to the ionic analogue” value in data set [1] is on record as “three- to five-fold”. Moreover, the “k’IAM” value in data set [1] ([Trig^1] analogue prodrugs) is recorded as 0.4.
Take “Dht-Glu(OHex)-Pro-NH2 [hexyl ester prodrug of Trig-Glu(OH)-Pro-NH2]”: the “Analeptic Effect: % Decrease in Sleeping Time” value (from here on “Analeptic Effect: % Decrease”) in data set [2] (n=6–16) was 18 ± 2%; in [2] (n=6–16, listed as Dht-Glu(OHex)–Pro-NH2), 18±2* %. Besides, the “t1/2 of hydrolysis of the ester” value (mouse) is given as 27 min. In addition, the “Porsolt Swim Test: % Decrease in Immobility” value (shortened to “Porsolt Swim Test: % Decrease”) in [3] is 43±3* %. Besides, in [1] ([Trig^1] analogue prodrugs), the “k’IAM” value is on record as 28.6.
Turning to “Prodrug, S= Ala-Ala: [Leu^2]TRH brain-targeting prodrug: Dht attached through spacer Ala-Ala to Gln-Leu-Pro-Gly, carboxy-terminus esterified with cholesterol (Dht-AAQLPG-{O(cholesteryl)}; reading uncertain)”, in data set [2] (15 µmol/kg i.v.), the “% Decrease in Sleeping Time” value is reported as 32 ± 4* %.
On to “Prodrug, S= Ala: [Leu^2]TRH brain-targeting prodrug: Dht attached through spacer Ala to Gln-Leu-Pro-Gly, carboxy-terminus esterified with cholesterol (Dht-AQLPG-{O(cholesteryl)}; reading uncertain)”, for which the “% Decrease in Sleeping Time” value in data set [2] (15 µmol/kg i.v.) is recorded as 30 ± 3* %.
Regarding “Prodrug, S= Pro-Ala: [Leu^2]TRH brain-targeting prodrug: Dht attached through spacer Pro-Ala to Gln-Leu-Pro-Gly, carboxy-terminus esterified with cholesterol (Dht-PAQLPG-{O(cholesteryl)}; reading uncertain)”, the “% Decrease in Sleeping Time” value in data set [2] (15 µmol/kg i.v.) is on record as 56 ± 4** %.
Take “Prodrug, S= Pro-Pro: [Leu^2]TRH brain-targeting prodrug: Dht attached through spacer Pro-Pro to Gln-Leu-Pro-Gly, carboxy-terminus esterified with cholesterol (Dht-PPQLPG-{O(cholesteryl)}; reading uncertain)”: in [2] (15 µmol/kg i.v.), the “% Decrease in Sleeping Time” value is reported as 55 ± 7** %.
“Prodrug, S= Pro: [Leu^2]TRH brain-targeting prodrug: Dht attached through spacer Pro to Gln-Leu-Pro-Gly, carboxy-terminus esterified with cholesterol (Dht-PQLPG-{O(cholesteryl)}; reading uncertain)”: the “% Decrease in Sleeping Time” value in [2] (15 µmol/kg i.v.) is 47 ± 6** %.
Consider TRH (from UniProt P01150), for which the Ki in [4] was 42 nM.
Take “Trig-Glu(OHex)-Pro-NH2 [hexyl ester of the designed [Trig^1] analogue of [Glu^2]TRH]”: in data set [2] (n=6–16), the “Analeptic Effect: % Decrease” value is 1±3%. The “pharmacological (analeptic) response, in words” value in [2] (i.v., ionic compound without reduction of Trig to Dht) is recorded as “no pharmacological response was observed”. The “Porsolt Swim Test: % Decrease” value in [3] was 2±1%.
In the case of “[pGlu]-Glu-Pro-NH2 [[Glu^2]TRH, TRH-like endogenous tripeptide, reference compound]”, the “Sleeping time (min)” value in data set [2] is given as 65±3* min. For the same substance, the “effect on triiodothyronine (T3) levels, in words” value in [5] is “does not elevate triiodothyronine (T3) levels”. Moreover, the “binding to TRH receptors, in words” value in data set [6] is “practically does not bind to TRH receptors”. Also, the “k’IAM” value in data set [1] (setting [12]) is listed as 0.
“[pGlu]-Leu-Pro-NH2 [[Leu^2]TRH, reference compound]”: in data set [2] (15 µmol/kg i.v.), the “% Decrease in Sleeping Time” value was 17 ± 7%. In addition, the logP result in data set [7] is reported as “–1.67”. For the same substance, in data set [8], the “increase in typical TRH-associated analeptic effect compared to TRH” value is on record as “approximately 2.5 fold”.
On to “pGlu-Glu(OHex)-Pro-NH2 [R=Hex, n-hexyl ester prodrug of [Glu^2]TRH on the γ-COOH of Glu]”, for which the “Sleeping time (min)” value in [2] was 50±2** min. Further, the “Analeptic Effect: % Decrease” value in data set [2] (n=6–16) is 37±3* %. Besides, the “ED50 (analeptic effect, dose-response)” value in [2] (i.v.) is given as “around 2 µmol/kg body weight”. Besides, the “t1/2” value (mouse) is reported as roughly 22 min. Besides, the “Porsolt Swim Test: % Decrease” value in data set [3] is 44±2* %. Besides, in data set [1] (setting [12]), the “k’IAM” value is recorded as 16.0.
“pGlu-His-Pro-NH2 [TRH, thyrotropin-releasing hormone, native tripeptide]”: the “duration of the analeptic action, in words” value in data set [2] (15 µmol/kg i.v., pentobarbital 60 mg/kg i.p. given 60 min post drug vs 10 min, Figure 6) is “loss of over half of CNS-activity”. Besides, the half-life (mouse brain homogenate (20%, w/v)) is listed as 16 min and the half-life in [11] was 11 min. The “k’IAM” value in data set [1] (TRH, pyridinium analogues and their prodrugs) is on record as 0.51. The half-life in plasma in data set [9] was 6 to 10 min. For the same substance, the logP entry in data set [7] (logarithm of the n-octanol/water partition coefficient, review, no reference given for the value) is “–2.46”. The binding affinity in data set [10] is 42 nM.
